Measured values as given in patent US10512632B2, “1 H-pyrazolo[4,3-B]pyridines as PDE1 inhibitors” (priority 2016, dated 2019).

Tests used:
PDE1B = PDE1B (Homo sapiens (Human), UniProt Q01064); assay: PDE1 inhibition assay (PDE1B), SPA with tritium labelled cAMP; type: biochemical; details: 15 nM tritium labelled cAMP, 1 hr at room temperature
From the text: (§1) Table 1 lists the IC50 value for inhibition of PDE1 by the compounds of the invention. […] PDE1 assays are described in the Experimental Section.

PDE1A = PDE1A (Homo sapiens (Human), UniProt P54750); assay: PDE1 inhibition assay (PDE1A), SPA with tritium labelled cAMP; type: biochemical; details: 15 nM tritium labelled cAMP, 1 hr at room temperature
From the text: as §1

Chain of PDE1A (P54750 whole entry): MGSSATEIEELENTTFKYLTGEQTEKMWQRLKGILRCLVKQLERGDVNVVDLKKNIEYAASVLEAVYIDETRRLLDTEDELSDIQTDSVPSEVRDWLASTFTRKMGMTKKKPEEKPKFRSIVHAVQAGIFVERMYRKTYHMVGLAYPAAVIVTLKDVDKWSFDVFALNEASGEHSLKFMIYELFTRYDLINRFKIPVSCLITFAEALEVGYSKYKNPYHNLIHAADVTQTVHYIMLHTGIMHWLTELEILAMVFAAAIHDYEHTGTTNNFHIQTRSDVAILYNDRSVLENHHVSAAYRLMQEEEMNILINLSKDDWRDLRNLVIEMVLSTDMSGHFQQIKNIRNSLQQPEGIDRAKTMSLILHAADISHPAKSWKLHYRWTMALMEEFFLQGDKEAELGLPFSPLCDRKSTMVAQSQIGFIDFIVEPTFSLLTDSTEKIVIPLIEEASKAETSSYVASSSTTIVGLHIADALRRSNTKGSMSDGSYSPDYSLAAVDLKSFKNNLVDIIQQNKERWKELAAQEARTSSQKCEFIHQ
Chain of PDE1B (Q01064 whole entry): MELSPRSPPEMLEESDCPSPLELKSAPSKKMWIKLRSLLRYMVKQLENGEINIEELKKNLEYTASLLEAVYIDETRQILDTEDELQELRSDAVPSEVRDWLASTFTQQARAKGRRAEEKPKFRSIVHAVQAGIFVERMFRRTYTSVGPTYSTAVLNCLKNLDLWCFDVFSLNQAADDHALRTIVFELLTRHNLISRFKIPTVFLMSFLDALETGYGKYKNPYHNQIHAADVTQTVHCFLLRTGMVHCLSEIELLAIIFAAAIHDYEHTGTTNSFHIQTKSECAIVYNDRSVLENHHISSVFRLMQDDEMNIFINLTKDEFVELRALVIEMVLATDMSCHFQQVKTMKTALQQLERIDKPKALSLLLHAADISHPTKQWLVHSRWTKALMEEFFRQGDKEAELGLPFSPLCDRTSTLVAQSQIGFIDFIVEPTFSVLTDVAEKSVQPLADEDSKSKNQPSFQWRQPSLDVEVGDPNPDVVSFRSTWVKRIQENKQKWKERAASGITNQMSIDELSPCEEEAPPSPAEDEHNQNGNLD

CCOc1ncccc1-c1cc(NCc2ccncc2OC)c2c(n1)c(C)nn2C(C)C [Example 172, 5-(2-ethoxy-3-pyridyl)-1-isopropyl-N-[(3-methoxy-4-pyridyl)methyl]-3-methyl-pyrazolo[4,3-b]pyridin-7-amine]
IC50 (PDE1B): 0.0055 µM
IC50 (PDE1A): 0.04 µM
